Publication PMC6874530, “Structural analysis identifies an escape route from the adverse lipogenic effects of liver X receptor ligands” (Communications Biology, 2019)
Like-named read-outs stand apart in the source and are kept apart here.

How the values were obtained:
[1] = tested on: plasma triglycerides; experiment: plasma TG induction in C57BL/6 mice vs plasma compound concentration (log-linear model); type: in vivo, mouse; settings: for TG induction in plasma m (scaling factor) / TG induction in plasma C2, drug concentration corresponding to a twofold increase in TG levels: (% RSE); for TG induction in plasma Attributed class: mouse, in vivo
Procedure: Male C57BL/6JOlaHsd mice were retrieved from Harlan Laboratories (Horst, The Netherlands) around 7 weeks of age. […] Mice were given ad libitum access to water and standard rodent chow during the studies.
Compounds were given daily by oral gavage, 5 ml kg^−1, at doses ranging from 0.1 to 100 μmol kg^−1 of body weight for 4 days. Animals were terminated 3 h after the last dose.
(§1) At termination, the whole-blood volume was drawn from isoflurane-anesthetized mice via an incision in the carotid artery into EDTA blood tubes (S-Monovette®, EDTA KE/1.3 mL, Sarstedt, Nümbrecht, Germany or BD Microtainers®, Benton, Dickinson and Company, Franklin Lakes, New Jersey, USA). Blood samples were placed on ice and centrifuged within an hour (15 min, 2500 × g, 4 °C or 5 min, 16000 × g, 4 °C). The plasma was then dispensed in separate tubes and kept at −80 °C for later analysis of compound concentration and TG levels. For the analysis of intestinal Abca1 transcript levels, a 3–5-mm long segment of the duodenum was excised and cleared from any gut contents. Tissues were instantly snap frozen in liquid nitrogen and stored at −80 °C.
Plasma triglyceride levels were analyzed by using the Triglycerides/Glycerol Blanked reagent kit (Roche Diagnostics GMBH, Mannheim, Germany). Samples were measured on an ABX Pentra 400 instrument (Horiba Medical, Irvine, California, USA) or Cobas Mira plus instrument (Roche Diagnostics Corporation, Indianapolis, USA). […] Absorbance was measured by using a Tecan Infinite M200 plate reader (Tecan Austria GmbH, Salzburg, Austria).
About 25 µL of plasma was precipitated with 150 µL of cold acetonitrile containing 0.2% formic acid. […] Sample analysis was performed by using a reversed-phase high-pressure liquid chromatography system coupled to a Quattro Ultima triple-quadrupole mass spectrometer (Waters, UK). A rapid 2-min 4–90% (vol/vol) acetonitrile (containing 0.2% formic acid) gradient was used for chromatographic separation.
To rank the compounds, the drug concentration (C2) needed to generate a twofold increase in plasma TG was estimated by rearranging Eq. (2):3 C2=exp^2fold−BL−1/m^1/γ

[2] = tested on: Abca1 mRNA in intestine; experiment: intestinal Abca1 mRNA induction in C57BL/6 mice (Emax model); type: in vivo, mouse; settings: for ED50: Mus musculus
Procedure: All procedures involving animals were conducted in accordance with accepted standards of good animal practice and approved by the respective local animal ethics committees (Gothenburg region Local Ethics Review Committee on Animal experiments and University of Virginia Animal Care and Use Committee). Male C57BL/6JOlaHsd mice were retrieved from Harlan Laboratories (Horst, The Netherlands) around 7 weeks of age. In the studies with BMS-852907, male 8-week C57BL/6J mice (Jackson Laboratories) were used. Mice were given ad libitum access to water and standard rodent chow during the studies.
Solid compounds were solubilized in PEG400/Ethanol/Solutol/Water solution (36.3/9.1/4.6/50%). Compounds were given daily by oral gavage, 5 ml kg^−1, at doses ranging from 0.1 to 100 μmol kg^−1 of body weight for 4 days. Animals were terminated 3 h after the last dose.
as §1
Snap-frozen intestinal tissues were quickly disrupted in QIAzol® (Qiagen, Hilden, Germany) or PureZOL™ (Bio-Rad Laboratories, Hercules, California, USA) by using a bead tissue homogenizer. Lysates were mixed with chloroform and centrifuged at 6000 × g for 15 min at 4 °C. Total RNA was purified from the upper aqueous phase on the ABI PRISM™ 6100 Nucleic Acid PrepStation (Applied Biosystems, Foster City, USA) or by using the RNeasy kit® (QIAGEN Sciences Inc., Germantown, Maryland, USA) including on-column DNase treatment by using the respective manufacturer’s protocol and reagents. Concentration of total RNA was determined on a NanoDrop™ ND-100 Spectrophotometer (Saveen Werner, Lögstrup, Sweden). The RNA templates were transferred to cDNA by reverse transcription by using the High-Capacity cDNA Reverse Transcription Kit (Applied Biosystems, Foster City, USA) according to the manufacturer’s protocol. Mouse ATP-binding cassette subfamily A member 1 (Abca1) was analyzed by using the forward primer 5′-[…]-3′, reverse primer 5′-[…]-3′, and the dual-labeled probe 5′-6FAM-[…]-TAMRA-3′. Mouse ribosomal protein large P0 (Rplp0, 36b4) was analyzed by using the forward primer 5′-[…]-3′, reverse primer 5′-[…]-3′, and the FAM-labeled probe 5′-[…]-TAMRA-3′. In the study with BMS-852907, RT-qPCR reactions were carried out in separate triplicate wells for Abca1 and Rplp0, respectively, by using 20 ng of cDNA template, 385 nM of the above-mentioned primers, and iQ™ SYBR Green Supermix (Bio-Rad, Hercules, California, USA) on a Bio-Rad MyiQ instrument (Bio-Rad, Hercules, California, USA). In the other studies, 400 nM Abca1 forward and reverse primers, 200 nM Abca1 probe, 200 nM Rplp0 forward and reverse primers, and 100 nM Rplp0 probe were mixed with 15 ng of cDNA template and TaqMan™ Gene Expression Master Mix (Applied Biosystems, Foster City, USA). The RT-qPCR reactions were performed on a 7500 Real-time PCR system (Applied Biosystems, Foster City, USA). Cycle threshold values (Ct) were retrieved from the instrument software. Relative changes in mRNA expression were calculated by using the comparative cycle method (2^−ΔΔCt). […]

[3] = tested on: plasma triglycerides; set-up: method as in van der Hoorn et al. 2011; settings: AZ876 high dose 20 µmol·kg−1·day−1, GW3965 at a similar dose; ref van der Hoorn et al. 2011; cited from earlier work
[4] = po, read-out: Abca1 mRNA induction in intestine Attributed class
[5] = oral gavage daily for 4 days, C57BL/6 mice, (% RSE), read-out: Abca1 mRNA induction in intestine ED50

SMILES	TG induction in plasma m (scaling factor) [1]	TG induction in plasma Attributed class [1]	TG induction in plasma C2, drug concentration corresponding to a twofold increase in TG levels [1]	ED50 [2, 4] [µmol/kg]	ED50 [2, 5] [µmol/kg]	increase of plasma triglyceride levels [3] [%]	class of intestinal Abca1 induction [2]
CC(C)(C)N1C(=O)C(Nc2ccc(N3CCCCC3)cc2)=C(c2ccccc2)S1(=O)=O [AZ876]	3.44 (49)	Lipogenic	0.269 (93) μM	≤ 11.3	0.956	110	–
O=C(O)Cc1ccc(COc2cccc(-c3c(Cc4ccccc4)cnc4c(C(F)(F)F)cccc34)c2)cc1 [WAY-254011, reference compound]	1.94 (4)	Lipogenic	0.794 (8) μM	≤ 11.3	< 30	–	high ABCA1
